From patent publication US10508281B2, “Disruption of ROCK1 gene leads to plants with improved traits” (priority 2014, dated 2019) come the findings set out here.

Residues, ends and D or L forms follow the SMILES beside them. *: point of attachment. Cbz = O=C(OCc1ccccc1)*

The target of one data set is T1, ROCK1 (Arabidopsis thaliana, UniProt Q8LES0).
T1 construct: FLAG (N); made in house; host or cells: Saccharomyces cerevisiae BY4741 (microsomal vesicles)
T1 sequence (Q8LES0 1-325): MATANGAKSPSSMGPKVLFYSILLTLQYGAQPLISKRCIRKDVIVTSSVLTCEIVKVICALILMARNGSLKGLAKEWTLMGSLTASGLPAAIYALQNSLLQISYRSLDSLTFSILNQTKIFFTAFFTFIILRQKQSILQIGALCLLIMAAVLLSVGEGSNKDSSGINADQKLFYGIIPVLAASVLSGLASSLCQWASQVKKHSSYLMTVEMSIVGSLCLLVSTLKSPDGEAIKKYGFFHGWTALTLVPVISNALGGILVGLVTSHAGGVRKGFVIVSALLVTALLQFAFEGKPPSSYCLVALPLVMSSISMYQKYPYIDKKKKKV
Kind of data set: Nucleotide-sugar transport assay: uptake of radiolabeled nucleotide sugars into yeast microsomes expressing FLAG-ROCK1. The data set is classed as biochemical. As to conditions: ER/Golgi microsomal vesicles from S. cerevisiae expressing FLAG-ROCK1 vs empty vector control.

Another data set concerns myc-CKX1. Kind of data set: myc-CKX1 level in seedlings after proteasome inhibitor treatment (immunoblotting and densitometry). Format: in vivo, Arabidopsis thaliana. To be noted: seedlings treated with 100 μM MG132. On the procedure: FIG. 4. ROCK1 regulates ERQC and CKX protein stability. (A) N-glycosylation status of myc-CKX1 protein in wild-type and rock1 seedlings. Protein extracts were treated with PNGase F or EndoH and the size of myc-CKX1 was compared to mock-treated control by SDS-PAGE and immunoblot with anti-myc antibody. (B) The loss of GnT-I activity in cgl1 mutants has no influence on the shoot phenotype of 35S:CKX1 plants (21 dag). (C) The level of myc-CKX1 is decreased in rock1 compared to wild type. Total protein extracts were analyzed by immunoblot with anti-myc antibody. Coomassie blue staining of Rubisco large subunit (RbcL) was used as loading control. Relative densitometric analysis of the myc-CKX1 signal is shown. […] Protein extracts were prepared from 7-d-old seedlings treated with mock or 100 μM CHX for indicated times and analyzed by immunoblotting. […] Seedlings were treated with 100 μM MG132 and myc-CKX1 analyzed by immunoblotting and densitometry. […] (F) Quantitative real-time PCR analysis of UPR genes in shoots of soil-grown seedlings 9 dag measured by. […]
Proteins were extracted and the concentration determined as described for the CKX activity assay. […] Intensities were normalized to the loading control and calculated relative to wild type samples. […]
To test CKX1 turnover, we analyzed myc-CKX1 levels in the presence of the translation inhibitor cycloheximide (CHX). […]
(In general: Immunoblotting shows a protein as a band on a membrane.)

The test system of a further data set is ipt3,5,7. Kind of data set: Restoration of growth of ipt3,5,7 mutant plants by CKX inhibitor application. The data set is classed as in vivo, Arabidopsis thaliana. To be noted: shoots sprayed with 10 μM INCYDE every 3 days; compared with suppression by rock1-1. On the procedure:
If not otherwise denoted, Arabidopsis thaliana Columbia-0 was used as the wild type. The T-DNA insertion lines rock1-2 (SALK_001259) and rock1-3 (901C01) were used. The following lines were described previously: 35S:CKX1-11, 35S:CKX2-9, 35S:CKX3-9, 35S:CKX7-GFP-26, ahk2-5, ahk3-7, cre1-2, atipt1, atipt3-2, atipt5-2, atipt7-1, cgl1 C6 (cgl1-2) and ARR5:GUS. Plants were grown in vitro on half-strength Murashige and Skoog (MS) medium containing 10 g/L sucrose, 0.5 g/L MES and 8 g/L phytagel. For analysis of root growth, 12 g/L phytagel and cytokinin or DMSO as solvent control were added to the medium. Plants were grown under long day conditions (16 h light/8 h dark; 21/18° C.) in vitro or in the green house. Shoots of soil grown plants were sprayed with 10 μM INCYDE and 0.01% Silwet L-77 every 3 days starting 3 days after germination. The binary vector constructs were transformed into Arabidopsis plants by Agrobacterium tumefaciens (strain GV3101:pMP90) mediated floral dip method.
To gain information about the specificity of rock1 in suppressing CKX overexpression phenotypes, rock1-1 was introgressed into 35S:CKX2, 35S:CKX3 and 35S:CKX7 plants.

Method for ROCK1: (B) Measurement of ROCK1-mediated uptake of radiolabeled nucleotide sugars into yeast microsomes expressing FLAG-ROCK1 or empty vector. Means±SEM (n=3; *, P<0.05, t test).
Nucleotide-sugar transport into Saccharomyces cerevisiae (BY4741) transformed with the construct pYEScupFLAGK-ROCK1 or the empty vector control was measured as described by Ashikov et al. (2005): “cultured cells were harvested by centrifugation (5 min at 1,500×g) and washed twice with ice-cold 10 mm NaN3. The weight of wet cells was measured, and cells were resuspended in zymolyase buffer (3 ml/g of cells; 50 mm potassium phosphate, pH 7.5; 1.4 m sorbitol; 10 mm NaN3 and 0.3% β-mercaptoethanol) containing 0.6 mg/ml of zymolyase-100T. The suspension was incubated for 20 min at 30° C. Spheroplasts were collected by centrifugation (5 min at 1,000×g) and resuspended in lysis buffer (4 ml/g of cells; 10 mm Hepes-Tris, pH 7.4; 0.8 m sorbitol; 1 mm EDTA) containing complete EDTA-free protease inhibitor mixture (Roche Applied Science). After homogenization with 10 strokes in a Dounce homogenizer, the lysate was centrifuged (5 min, 1,500×g) to remove unlysed cells and debris. Endoplasmic reticulum- and Golgi-rich fractions were then obtained by centrifugation at 10,000×g for 10 min (endoplasmic reticulum) and 100,000×g for 1 h (Golgi). The 100,000×g pellet was carefully resuspended in lysis buffer (0.8 ml/g of cells), and aliquots of 100 μl were snap-frozen and kept at −80° C. Protein concentrations were determined using the BCA™ kit (Pierce). For transport assay reactions, equal volumes (50 μl of each) of 2 mm radioactive nucleotide sugar (2,000-4,000 dpm/pmol) in assay buffer (10 mm Tris-HCl, pH 7.0; 0.8 m sorbitol; 2 mm MgCl2) and vesicle preparation (equivalent to 75-100 μg of protein) were incubated for 30 s at 30° C. Reactions were stopped by dilution with 1 ml of assay buffer containing 1 μm respective cold nucleotide sugar. The separation of vesicles and nucleotide sugars was achieved by filtration trough nitrocellulose filter (MF™ membrane filters Millipore, Bedford, Mass.). Filters were washed three times with 2 ml of ice-cold assay buffer containing the corresponding cold nucleotide sugar at a concentration of 1 μm, and radioactivity associated with the vesicular fraction was measured by liquid scintillation in a LS 5000CE counter (Beckman Coulter). Golgi vesicles from yeast cells transformed with an empty vector were used to measure endogenous transport.”
To directly test the transport specificity of ROCK1, a FLAG-tagged ROCK1 protein was expressed in Saccharomyces cerevisiae, which has, with the exception of GDP-Man, a low background for most nucleotide sugar transport activities and is commonly used as a heterologous test system for NSTs. […]

For the compound `CC1OC(OP(=O)(O)OP(=O)(O)OCC2OC(n3cnc4c(=O)[nH]c(N)nc43)C(O)C2O)C(O)C(O)C1O` (stereo not shown) [GDP-Fuc], the “relative transport in ROCK1 microsomes versus empty vector control (in words)” value on ROCK1 is “lowered”.
The same measure, in the same setting: the same measure for `Nc1nc2c(ncn2[C@@H]2O[C@H](COP(=O)(O)OP(=O)(O)O[C@H]3O[C@H](CO)[C@@H](O)[C@H](O)[C@@H]3O)[C@@H](O)[C@H]2O)c(=O)[nH]1` [GDP-Man]: “lowered”.
With `CC(C)C[C@@H](C=O)NC(=O)[C@H](CC(C)C)NC(=O)[C@H](CC(C)C)NC(=O)OCc1ccccc1` [MG132] (Cbz-Leu-Leu-Leu-aldehyde), the “effect on myc-CKX1 levels in rock1 background” value with myc-CKX1 (rock1 background) is listed as “strongly stabilized myc-CKX1 levels”. In addition, the “effect on level of myc-CKX1 in wild type” value in the data set with myc-CKX1 (wild type background) is recorded as “increased the level of myc-CKX1”.
On to `CC(=O)N[C@H]1[C@@H](OP(=O)(O)OP(=O)(O)OC[C@H]2O[C@@H](n3ccc(=O)[nH]c3=O)[C@H](O)[C@@H]2O)O[C@H](CO)[C@H](O)[C@@H]1O` [UDP-GalNAc, UDP-N-acetylgalactosamine], for which the “uptake in vesicles expressing ROCK1, increased in comparison to the control” value on ROCK1 turned out to be 7 fold.
Still for that read-out and setting: the same measure for `CC(=O)N[C@H]1[C@@H](OP(=O)(O)OP(=O)(O)OC[C@H]2O[C@@H](n3ccc(=O)[nH]c3=O)[C@H](O)[C@@H]2O)O[C@H](CO)[C@@H](O)[C@@H]1O` [UDP-GlcNAc, UDP-N-acetylglucosamine]: 3 fold.
In the case of `COc1cccc(Nc2nc(Cl)nc3nc[nH]c23)c1` [chemical inhibitor of CKX activity], in the data set with ipt3,5,7, the “restoration of ipt3,5,7 growth” value is on record as “comparable restoration of ipt3,5,7 growth”.
